Data from patent publication US20010009926A1, “Mesozeaxanthin formulations for treatment of retinal disorders” (THE HOWARD FOUNDATION, priority 1993, published 2001).

How the values were obtained:
Assay type in all cases: in vivo, human
macular pigment [1] = test: Macular pigment optical density by heterochromatic flicker photometry during lutein supplementation; details: 30 mg/day lutein ester, increased from 0.3
macular pigment [2] = test: as above
Procedure: A trial was conducted to determine if dietary supplementation with lutein and zeaxanthin effectively can change the pigment levels in the macula. The optical density of the macula pigment was measured for each subject using the method of flicker photometry (Bone and Sparrock 1971; Bone et al 1992). The concentration of pigment in the macula is proportioned to its optical density and the actual amount of pigment was assumed to be proportional to concentration. Thus, optical density was taken as a measure of the total amount of pigment.
(§1) Two healthy adult males (of age/weight 42 year/60 kg and 51 years/61 kg) ingested the equivalent of 30 mg of lutein per day in the form of lutein esters (source: marigold flowers) suspended in 2 ml of canola oil. This was continued over a period of 138 days and then the dose of lutein was discontinued. Chemical analysis has shown that the product contains approximately 97% lutein—and 3% zeaxanthin. Fasting serum lutein/zeaxanthin levels of both individuals were determined by conventional HPLC on the morning of the first dose as a measure of base line. Blood samples were drawn at 2-3 hour intervals throughout the first day for both subjects and then daily for the next three days. Following the first week of supplementation, blood samples were drawn weekly. Blood was collected into a standard Vacutainer serum separator tube containing no anticoagulant. After allowing about 30 min for coagulation, the sample was centrifuged for 10 minutes and the serum removed by pipette. Serum samples were stored at −20° C. prior to analysis. Carotenoids ware extracted from the serum by a minor modification of widely used methods (Guiliano et al, 1993; Handelmann et al, 1992), 200 μl aliquots of serum were diluted with 2 mL of 50% ethanol/water to ensure precipitation of protein components. 20 μl of an internal standard, monohexyl lutein ether, containing about 90 ng, was added to the solution at this point for quantification of the caratenoids by HPLC. This solution was extracted 3 times with 2 mL portions of hexane by vortexing the sample for 1 min followed by centrifuging for 5 minutes and pipetting off the hexane layer. The three portions of hexane were dried under a stream of nitrogen gas and stared under nitrogen at −20° C. until analysis was completed.
The optical density of the macular pigment was measured for each subject using the method of heterochomatic flicker photometry (Bone and Sparrock, 1971; Bone et al, 1992). The concentration of pigment in the macula is proportional to its optical density and the actual amount of pigment was assumed to be proportional to concentration. Thus optical density was taken to be a measure of the total amount of pigment.
In the flicker method, a small visual stimulus is presented to the eye which alternates in wavelength between 460 nm, the peak absorbance wavelength of the macular pigment, and 540 nm where pigment absorbance is zero (Bone et al., 1992). Above a certain frequency, color fusion occurs but the stimulus continues to flicker. At a higher frequency, a critical condition can be reached where flicker can be eliminated only if the two wavelength components are matched in luminance. If the stimulus is viewed peripherally, so that the image falls outside the macula, neither wavelength is attenuated by the macular pigment. However, if the stimulus is viewed centrally, the intensity of the 460 nm light must be increased to compensate for absorption by the macular pigment in order to achieve a luminance match. Thus it is possible to determine the optical density of a subject's macular pigment at the peak wavelength, or indeed any other wavelength.
The apparatus consisted of a two-channel Maxwellian view system based on a single light source, a 75 W xenon arc lamp. The wavelengths of the two channels were determined by 460 nm and 540 nm interference filters respectively, having half-widths of 7 and 9 nm. […]

[3] = Skin colour observation during lutein supplementation; details: each subject; after several weeks of administration, 30 mg lutein per day
[4] = Serum lutein by HPLC during oral lutein ester supplementation; details: subjects three, equivalent of 30 mg lutein per day as lutein esters in canola oil, within the first week
Procedure: Serum lutein and zeaxanthin was measured by conventional HPLC.
as §1, with “Carotenoids ware extracted from the serum by a minor modification of widely used methods (Guiliano et al, 1993; Handelmann et al, 1992), 200 μl aliquots of serum were diluted with 2 mL of 50% ethanol/water to ensure precipitation of protein components.” left out, “This solution was extracted 3 times with 2 mL portions of hexane by vortexing the sample for 1 min followed by centrifuging for 5 minutes and pipetting off the hexane layer. The three portions of hexane were dried under a stream of nitrogen gas and stared under nitrogen at −20° C. until analysis was completed.” left out

In the case of lutein ester, the “macular pigment optical density” value (macular pigment [1]; subject one, both eyes, after 75 days, then plateau) is reported as 0.5 and the “macular pigment optical density” value (macular pigment [1]; subject two, left eye only) is reported as 0.5.

With `CC1=C[C@H](O)CC(C)(C)[C@H]1/C=C/C(C)=C/C=C/C(C)=C/C=C/C=C(C)/C=C/C=C(C)/C=C/C1=C(C)C[C@@H](O)CC1(C)C` [lutein] the “day until which optical density continued to rise before plateau” value (macular pigment [2]; subject four, both eyes, dose discontinued at day 138) was 200 days, the “slope of macular pigment optical density (linear least squares fit)” value (from here on “slope of macular pigment optical density”) (macular pigment [2]; subject four, left eye, day -7 to day 83 of lutein supplementation) was 3.1×10^−3 absorbance units per week and the “macular pigment optical density, final average” value (macular pigment [2]; subject four, left eye, initial mean 0.76, p<0.001) was 0.79. The “slope of macular pigment optical density” value (macular pigment [2]; subject four, right eye, day -7 to day 83 of lutein supplementation) was 2.3×10^−3 absorbance units per week, the “macular pigment optical density, final average” value (macular pigment [2]; subject four, right eye, initial mean 0.66, p<0.001) was 0.70 and the “macular pigment optical density, final average” value (macular pigment [2]; subject three, left eye, average of 15 measurements over 18 days at end of experiment, initial values 0.57 and 0.58, p<0.0005) was 0.70. For the same compound, the “slope of macular pigment optical density” value (macular pigment [2]; subject three, left eye, day -7 to day 72 of lutein supplementation) was 15.3×10^−3 absorbance units per week, the “macular pigment optical density, final average” value (macular pigment [2]; subject three, right eye, average of 15 measurements over 18 days at end of experiment, initial values 0.57 and 0.58, p<0.0005) was 0.67 and the “day until which optical density continued to rise before plateau” value (macular pigment [2]; subject three, dose of lutein discontinued at day 138) was ~180 days. The “skin colour of the palms of the hands” value [3] was “turned a noticeable yellow colour” and the “increase in serum lutein concentration (factor)” value [4] was “about 10 times”.
